Measured values taken from US9580416B2, “Inhibitors of Bruton's tyrosine kinase” (PHARMACYCLICS LLC, priority 2014, dated 2017).
pIC50: −log10 of the molar value.

Assays:
Format in all cases: biochemical
[1] = molecular target: Btk (Homo sapiens, UniProt Q06187); experiment: Btk kinase activity, TR-FRET assay; details: read-out: Btk (IC50)
Procedure, shortened: (§1)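 Enzyme (Btk 0.5 nM; Lck 6 nM) reacted 1 h with inhibitor, ATP at Km and biotin-peptide substrate in pH 7.4 buffer, 10% DMSO. Phosphopeptide detected by Eu-p-Tyr100 antibody plus streptavidin-APC (665/615 nm). IC50 calculated from fitted Ki(app) via ATP/Km correction plus half total enzyme.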

[2] = molecular target: Lck (Homo sapiens, UniProt P06239); experiment: Lck kinase activity, TR-FRET assay; details: read-out: LCK (IC50)
Procedure, shortened: as §1

[3] = molecular target: EGFR (Homo sapiens, UniProt P00533); experiment: Inhibition of a panel of kinases, in vitro HotSpot kinase assay: EGFR
Description: (§2) The degree of inhibition of a panel of kinases is determined using the in vitro HotSpot kinase assay (purified enzymes, ^33P-ATP, an appropriate substrate and 1 uM ATP).

[4] = molecular target: T1, JAK3 (Homo sapiens, UniProt P52333); experiment: Inhibition of a panel of kinases, in vitro HotSpot kinase assay: JAK3
T1 sequence (P52333 1-1124): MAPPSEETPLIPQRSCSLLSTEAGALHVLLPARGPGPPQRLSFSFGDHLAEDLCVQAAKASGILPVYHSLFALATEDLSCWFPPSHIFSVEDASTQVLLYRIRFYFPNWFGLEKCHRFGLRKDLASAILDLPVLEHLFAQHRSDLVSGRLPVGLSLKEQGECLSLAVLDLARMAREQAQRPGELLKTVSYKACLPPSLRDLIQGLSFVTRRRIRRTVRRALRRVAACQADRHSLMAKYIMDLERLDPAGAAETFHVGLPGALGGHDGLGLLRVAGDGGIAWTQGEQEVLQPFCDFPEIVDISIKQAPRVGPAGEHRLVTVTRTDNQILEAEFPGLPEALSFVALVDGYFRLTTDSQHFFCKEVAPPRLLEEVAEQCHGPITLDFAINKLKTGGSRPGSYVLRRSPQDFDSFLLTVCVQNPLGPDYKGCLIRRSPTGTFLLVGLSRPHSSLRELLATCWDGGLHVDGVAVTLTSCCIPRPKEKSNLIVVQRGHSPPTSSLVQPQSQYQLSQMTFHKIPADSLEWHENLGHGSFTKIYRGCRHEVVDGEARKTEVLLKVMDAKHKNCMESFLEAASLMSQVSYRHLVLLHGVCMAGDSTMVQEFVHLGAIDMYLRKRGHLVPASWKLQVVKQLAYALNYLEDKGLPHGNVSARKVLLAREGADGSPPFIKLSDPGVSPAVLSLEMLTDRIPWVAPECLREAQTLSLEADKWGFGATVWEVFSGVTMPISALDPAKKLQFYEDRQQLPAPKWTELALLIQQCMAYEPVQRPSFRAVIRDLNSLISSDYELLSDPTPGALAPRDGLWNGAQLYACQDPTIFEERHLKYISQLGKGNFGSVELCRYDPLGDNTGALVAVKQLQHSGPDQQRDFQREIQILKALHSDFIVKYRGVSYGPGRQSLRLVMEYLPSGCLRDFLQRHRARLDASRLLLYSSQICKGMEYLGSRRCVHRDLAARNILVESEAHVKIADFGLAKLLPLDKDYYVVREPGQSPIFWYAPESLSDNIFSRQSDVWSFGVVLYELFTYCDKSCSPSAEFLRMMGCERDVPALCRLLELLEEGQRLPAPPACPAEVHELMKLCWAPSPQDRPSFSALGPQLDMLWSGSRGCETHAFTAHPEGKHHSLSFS
Description: as §2

Sequence of EGFR (P00533 25-1210): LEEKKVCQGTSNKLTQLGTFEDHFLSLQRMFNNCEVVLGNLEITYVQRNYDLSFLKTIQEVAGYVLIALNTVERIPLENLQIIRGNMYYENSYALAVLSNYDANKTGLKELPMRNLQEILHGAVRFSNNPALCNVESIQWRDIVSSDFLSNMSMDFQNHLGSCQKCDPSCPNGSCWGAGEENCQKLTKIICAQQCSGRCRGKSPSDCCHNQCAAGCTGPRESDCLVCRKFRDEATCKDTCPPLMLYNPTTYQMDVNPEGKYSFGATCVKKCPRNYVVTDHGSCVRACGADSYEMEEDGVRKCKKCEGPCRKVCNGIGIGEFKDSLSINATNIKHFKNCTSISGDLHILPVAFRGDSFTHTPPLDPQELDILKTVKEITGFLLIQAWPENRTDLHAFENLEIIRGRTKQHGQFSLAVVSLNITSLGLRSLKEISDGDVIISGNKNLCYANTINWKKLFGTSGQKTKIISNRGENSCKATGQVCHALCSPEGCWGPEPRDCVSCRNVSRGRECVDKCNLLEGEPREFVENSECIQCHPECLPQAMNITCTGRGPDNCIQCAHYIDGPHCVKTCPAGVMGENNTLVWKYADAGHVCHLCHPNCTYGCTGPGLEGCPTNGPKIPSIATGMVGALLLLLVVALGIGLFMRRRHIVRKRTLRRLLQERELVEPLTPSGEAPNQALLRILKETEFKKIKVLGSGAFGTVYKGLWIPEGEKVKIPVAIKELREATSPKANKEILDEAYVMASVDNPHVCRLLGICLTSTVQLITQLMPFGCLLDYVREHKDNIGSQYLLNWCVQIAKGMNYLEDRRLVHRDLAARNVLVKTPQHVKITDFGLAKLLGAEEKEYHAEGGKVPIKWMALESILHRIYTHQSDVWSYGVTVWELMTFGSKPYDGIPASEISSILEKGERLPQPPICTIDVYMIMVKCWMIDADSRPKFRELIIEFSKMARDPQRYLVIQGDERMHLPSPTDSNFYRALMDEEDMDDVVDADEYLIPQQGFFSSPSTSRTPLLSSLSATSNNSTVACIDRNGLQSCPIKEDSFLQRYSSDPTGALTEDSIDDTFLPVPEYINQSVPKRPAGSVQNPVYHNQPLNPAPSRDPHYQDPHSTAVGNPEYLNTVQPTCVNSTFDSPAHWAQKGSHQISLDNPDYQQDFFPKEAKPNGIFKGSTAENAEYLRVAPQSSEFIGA
Sequence of Lck (P06239 whole entry, species assumed): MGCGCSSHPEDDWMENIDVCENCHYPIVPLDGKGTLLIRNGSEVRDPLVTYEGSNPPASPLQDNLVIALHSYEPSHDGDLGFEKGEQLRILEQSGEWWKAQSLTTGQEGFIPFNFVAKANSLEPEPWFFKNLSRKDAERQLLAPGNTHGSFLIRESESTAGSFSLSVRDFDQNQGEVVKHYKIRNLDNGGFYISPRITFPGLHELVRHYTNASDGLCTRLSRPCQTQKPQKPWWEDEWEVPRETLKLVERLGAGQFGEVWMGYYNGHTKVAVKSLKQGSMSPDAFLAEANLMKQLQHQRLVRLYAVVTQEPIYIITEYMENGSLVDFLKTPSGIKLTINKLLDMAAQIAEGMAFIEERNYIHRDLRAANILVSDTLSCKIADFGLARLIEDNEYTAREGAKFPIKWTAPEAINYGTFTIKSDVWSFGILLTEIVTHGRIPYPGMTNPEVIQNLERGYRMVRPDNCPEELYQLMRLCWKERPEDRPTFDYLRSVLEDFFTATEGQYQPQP
Sequence of Btk (Q06187 whole entry): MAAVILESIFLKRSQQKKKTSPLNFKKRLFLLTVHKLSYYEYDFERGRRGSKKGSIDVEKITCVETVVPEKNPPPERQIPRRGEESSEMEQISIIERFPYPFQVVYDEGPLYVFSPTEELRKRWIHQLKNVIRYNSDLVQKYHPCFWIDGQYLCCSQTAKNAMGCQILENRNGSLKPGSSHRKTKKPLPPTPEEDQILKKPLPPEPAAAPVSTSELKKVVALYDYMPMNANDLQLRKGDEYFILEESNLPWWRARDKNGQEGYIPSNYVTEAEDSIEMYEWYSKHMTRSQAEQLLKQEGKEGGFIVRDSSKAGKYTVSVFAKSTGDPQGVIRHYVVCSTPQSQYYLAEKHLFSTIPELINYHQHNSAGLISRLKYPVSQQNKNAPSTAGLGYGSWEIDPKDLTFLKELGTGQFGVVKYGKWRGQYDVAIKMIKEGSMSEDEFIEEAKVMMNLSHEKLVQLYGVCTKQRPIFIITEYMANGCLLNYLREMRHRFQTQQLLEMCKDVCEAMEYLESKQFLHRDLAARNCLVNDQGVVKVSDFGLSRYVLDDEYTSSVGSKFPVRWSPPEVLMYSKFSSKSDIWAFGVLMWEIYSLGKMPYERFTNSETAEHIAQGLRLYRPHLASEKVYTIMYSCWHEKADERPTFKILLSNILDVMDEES

SMILES	pIC50 [1]	pIC50 [2]	pIC50 [3]	pIC50 [4]
Cc1cc(NC(=O)c2cccc(Nc3ccnc4[nH]nc(O[C@@H]5CCCN(C(=O)C6CC6)C5)c34)c2)ccc1C(C)C [compound 134, 3-[(3-{[(3R)-1-cyclopropanecarbonylpiperidin-3-yl]oxy}-1H-pyrazolo[3,4-b]pyridin-4-yl)amino]-N-[3-methyl-4-(propan-2-yl)phenyl]benzamide]	6.00 to 7.00	5.00 to 6.00	< 5.00	< 5.00
CC(=O)N1CCC[C@@H](Oc2n[nH]c3nccc(Nc4cccc(C(=O)Nc5ccc(C(C)C)c(C)c5)c4)c23)C1 [compound 135, 3-[(3-{[(3R)-1-acetylpiperidin-3-yl]oxy}-1H-pyrazolo[3,4-b]pyridin-4-yl)amino]-N-[3-methyl-4-(propan-2-yl)phenyl]benzamide]	6.00 to 7.00	5.00 to 6.00	5.00 to 6.00	< 5.00
CN1CCc2sc(NC(=O)c3ccc(Oc4ccnc5[nH]nc(N[C@@H]6CCCN(C(=O)/C=C/CN(C)C7CC7)C6)c45)cc3)nc2C1 [compound 137, 4-[(3-{[(3R)-1-[(2E)-4-[cyclopropyl(methyl)amino]but-2-enoyl]piperidin-3-yl]amino}-1H-pyrazolo[3,4-b]pyridin-4-yl)oxy]-N-{5-methyl-4H,5H,6H,7H-[1,3]thiazol[4,5-c]pyridin-2-yl}benzamide]	6.00 to 7.00	< 5.00	< 5.00	< 5.00
Cc1csc(NC(=O)c2ccc(Oc3ccnc4[nH]nc(N[C@@H]5CCCN(C(=O)/C=C/CN(C)C6CC6)C5)c34)cc2)n1 [compound 139]	6.00 to 7.00	< 5.00	5.00 to 6.00	5.00 to 6.00
C=CC(=O)N1CCC[C@@H](Nc2n[nH]c3nccc(Oc4ccc(C(=O)Nc5ncc(C)s5)cc4)c23)C1 [compound 140]	> 7.00	6.00 to 7.00	6.00 to 7.00	> 7.00
CC#CC(=O)N1CCC[C@@H](Nc2n[nH]c3nccc(Oc4ccc(C(=O)Nc5ncc(C)s5)cc4)c23)C1 [compound 141]	> 7.00	5.00 to 6.00	< 5.00	5.00 to 6.00
Cc1cnc(NC(=O)c2ccc(Oc3ccnc4[nH]nc(N[C@@H]5CCCN(C(=O)/C=C/CN(C)C6CC6)C5)c34)cc2)s1 [compound 142]	> 7.00	5.00 to 6.00	5.00 to 6.00	5.00 to 6.00
C=CC(=O)N1CCC[C@@H](Nc2n[nH]c3nccc(Oc4ccc(C(=O)Nc5nc(C)cs5)cc4)c23)C1 [compound 143]	> 7.00	5.00 to 6.00	5.00 to 6.00	> 7.00
C=CC(=O)N1CCC[C@@H](Nc2n[nH]c3nccc(O[C@H]4CC[C@H](C(=O)Nc5ncc(C)s5)CC4)c23)C1 [compound 144]	6.00 to 7.00	< 5.00	5.00 to 6.00	6.00 to 7.00
C=CC(=O)N1CCC[C@@H](Nc2n[nH]c3nccc(Oc4ccc(C(=O)Nc5nc6c(s5)CCN(C)C6)cc4)c23)C1 [compound 145]	> 7.00	< 5.00	< 5.00	> 7.00
C=CC(=O)N1CCC[C@@H](Nc2n[nH]c3nccc(Oc4ccc(C(=O)Nc5nc(C)c(C)s5)cc4)c23)C1 [compound 146]	> 7.00	6.00 to 7.00	6.00 to 7.00	> 7.00
C=CC(=O)N1CCC[C@@H](Nc2n[nH]c3nccc(Oc4cccc(-c5ncc(C)s5)c4)c23)C1 [compound 148]	6.00 to 7.00	< 5.00	6.00 to 7.00	5.00 to 6.00
C=CC(=O)N1CCC[C@@H](Nc2n[nH]c3nccc(Oc4cccc(C(=O)Nc5ncc(C)s5)c4)c23)C1 [compound 149]	> 7.00	5.00 to 6.00	> 7.00	> 7.00
C=CC(=O)N1CCC[C@@H](Nc2n[nH]c3nccc(Oc4ccc(Oc5ccccc5)c(C)c4)c23)C1 [compound 153]	> 7.00	6.00 to 7.00	> 7.00	6.00 to 7.00
